Like-named read-outs stand apart in the source and are kept apart here.
How the values were obtained:
SARS-CoV [1] = format: cell-based
[2] = system: Herpes simplex virus and varicella-zoster virus; conditions: cited from earlier work
Cytomegalovirus = conditions: cited from earlier work
Herpes simplex mutants = conditions: cited from earlier work
HIV = conditions: cited from earlier work
Influenza virus = conditions: cited from earlier work
Herpes and poxviruses = conditions: cited from earlier work
[3] = system: HIV and other retroviruses; conditions: cited from earlier work
SARS-CoV [4] = conditions: ribavirin concentrations that inhibit other sensitive viruses; preliminary; cited from earlier work
[5] = complete (100%) inhibition of CPE up to highest concentration tested, 10,000 PFU/well, MOI 0.5, Vero E6

Nc1nc2c(ncn2COCCO)c(=O)[nH]1 [Acyclovir]
Inhibition of Cytopathic Effect (SARS-CoV [1]): No
IC50 [2]: 0.01 to 13.5 µg/mL

NC12CC3CC(CC(C3)C1)C2 [Amantadine]
Inhibition of Cytopathic Effect (SARS-CoV [1]): No

Nc1nc(O)c2ncn(COC(CO)CO)c2n1 [Cymevene, Ganciclovir]
IC50 (Cytomegalovirus): 0.02 to 3.48 µg/mL
Inhibition of Cytopathic Effect (SARS-CoV [1]): No

O=C(O)P(=O)(O)O [Foscarnet]
IC50 (Cytomegalovirus; read-out: IC50): 50 to 800 µM
Inhibition of Cytopathic Effect (SARS-CoV [1]): No
IC50 (Herpes simplex mutants): 5 to 443 µM

CC(C)(C)NC(=O)[C@@H]1CN(Cc2cccnc2)CCN1C[C@@H](O)C[C@@H](Cc1ccccc1)C(=O)N[C@H]1c2ccccc2C[C@H]1O [Indinavir]
Inhibition of Cytopathic Effect (SARS-CoV [1]; [5]): No
IC50 (HIV; read-out: IC50): 0.025 to 0.1 µM

Cc1c(O)cccc1C(=O)N[C@@H](CSc1ccccc1)[C@H](O)CN1C[C@H]2CCCC[C@H]2C[C@H]1C(=O)NC(C)(C)C [Nelfinavir]
Inhibition of Cytopathic Effect (SARS-CoV [1]): No
EC95 (HIV): 0.007 to 0.196 µM

CCOC(=O)C1=C[C@@H](OC(CC)CC)[C@H](NC(C)=O)[C@@H](N)C1 [Oseltamivir]
Inhibition of Cytopathic Effect (SARS-CoV [1]): No

NC(=O)c1ncn([C@@H]2O[C@H](CO)[C@@H](O)[C@H]2O)n1 [Ribavirin]
IC50 (Influenza virus): 1 to 25 µg/mL
concentrations showing inhibitory activity (SARS-CoV [1]; all three viral loads): 0.5 to 5 mg/mL
Inhibition of Cytopathic Effect (SARS-CoV [1]; [5]): Yes
Complete inhibition of cytopathic effect (CIA100) (SARS-CoV [1]; virus load 100 PFU/well): 1,000 μg/mL
Complete inhibition of cytopathic effect (CIA100) (SARS-CoV [1]; virus load 1,000 PFU/well): 10,000 μg/mL
Complete inhibition of cytopathic effect (CIA100) (SARS-CoV [1]; virus load 10,000 PFU/well): 5,000 μg/mL
Complete inhibition of cytopathic effect (CIA100) (SARS-CoV [1]; virus load 10,000 PFU/well, listed as Ribavarin): 10,000 μg/mL
MIC (Herpes and poxviruses): 3.2 to 50 µg/mL
cytotoxicity (Vero E6 cells): slight cytotoxicity
concentrations at which cytotoxic effects were observed (Vero E6 cells; African green monkey): 200 to 1000 µg/mL
IC50 [3]: 25 to 100 µg/mL
inhibition of replication or cell-to-cell spread of the SARS-CoV (SARS-CoV [4]): do not inhibit

CC(C)(C)NC(=O)[C@@H]1C[C@@H]2CCCC[C@@H]2CN1C[C@@H](O)[C@H](Cc1ccccc1)NC(=O)[C@H](CC(N)=O)NC(=O)c1ccc2ccccc2n1 [Saquinavir]
Inhibition of Cytopathic Effect (SARS-CoV [1]): No
IC50 (HIV; read-out: IC50): 0.001 to 0.03 µM

CC(=O)N[C@H]1[C@H]([C@H](O)[C@H](O)CO)OC(C(=O)O)=C[C@@H]1N=C(N)N [Zanamivir]
IC50 (Influenza virus; read-out: IC50): 0.005 to 16 µM
Inhibition of Cytopathic Effect (SARS-CoV [1]): No

Cc1cn([C@H]2C[C@H](N=[N+]=[N-])[C@@H](CO)O2)c(=O)[nH]c1=O [Zidovudine]
Inhibition of Cytopathic Effect (SARS-CoV [1]; [5]): No
IC50 (HIV): 0.003 to 0.013 µg/mL

Interferon α2b
Inhibition of Cytopathic Effect (SARS-CoV [1]): No
